This note sets out measurements from patent US5310881A, “Glycosaminoglycan-modified protein” (Seikagaku Corporation, priority 1990, dated 1994).

This assay has as its system mouse ischemic foot edema. Put plainly: Effect on mouse ischemic foot edema. The assay is classed as in vivo, ddy male mouse. Particulars: given just before ischemia, HA 26.71 mg. The method, then:
A ddy male mouse aged 8 weeks is kept in a keeping device and the right hind leg is tied around with a suture (Brain No. 2). One end of the suture is fixed while a weight of 500 g is suspended from another end of the suture. Thus, ischemia is conducted for a definite period of time. Before the ischemia and 60 minutes thereafter, the thickness of the foot-pad of the animal was measured with slide calipers. Then, the foot-pad is cut and weighed. To a control group, a physiological saline is intravenously administered immediately before the initiation of the ischemia. To test groups, specimen shown in Table 6 was administered 30 minutes before the initiation of the ischemia and immediately before the same. Each group has 5 animals. The catarase used as a specimen was originated from bovine liver. The HA-catalase used was prepared as follows. 10 mg of the HA-catalase of lot No. 120-1 was dissolved in 5.2 ml of a physiological saline and filtered through a membrane of 0.22 μm (Milex GV; mfd. by Nippon Millipore Kogyo K.K.). 1 ml portions of the filtrate were distributed to ampuls to give a preparation for injection. The preparation contained 600 U of the enzyme per ampul.
The effects were calculated in accordance with the following equations. [formula] It is believed that a sample showing A of 40 or more is effective. [formula] It is believed that a sample showing A of 60 or more is effective.

With hyaluronic acid [HA], the “Effect A” value stood at 22 and the “Effect B” value is 35.
